Data: publication PMC8869629, “Comparison of Various Solvent Extracts and Major Bioactive Components from Portulaca oleracea for Antioxidant, Anti-Tyrosinase, and Anti-α-Glucosidase Activities” (Antioxidants, 2022)
Converted amounts (≈) assume the structure as drawn.

What was measured:
[1] = DPPH radical scavenging assay; format: biochemical; conditions: mean ± SD (n = 3)
Experimental: The DPPH radical scavenging assay was determined by the reference method.

[2] = ABTS cation radical scavenging assay; format: biochemical; conditions: mean ± SD (n = 3)
Experimental: The ABTS cation radical scavenging assay was carried out using the reference method.

[3] = Hydroxyl radical scavenging assay; format: biochemical; conditions: mean ± SD (n = 3)
Experimental: The samples were evaluated for hydroxyl radical scavenging activity based on the previously described method.

[4] = Superoxide anion radical scavenging assay (PMS-NADH-NBT); format: biochemical; conditions: isolated components (Table 5); mean ± SD (n = 3)
Experimental: Superoxide anion radical (O2^•−) scavenging activity was described earlier with slight changes. […] The reaction was initiated by adding 50 μL of NADH (468 μM) solution to the mixture. After incubating at room temperature for 5 min, the activity of samples was determined by calculating the decrease in absorbance measured at 560 nm by the following equation,
Superoxide anion radical scavenging activity (%) = (A0 − A1)/A0 × 100, where A1 is the absorbance of the test sample and A0 is the absorbance of the control.
IC50 values for the tested activities were determined by linear regression of the percentage of remaining superoxide anion radicals against sample concentration.

α-glucosidase = α-glucosidase (Saccharomyces cerevisiae, UniProt P53341); test: biochemical
Experimental: α-Glucosidase inhibitory activity was established in accordance with the described method with slight modifications. In brief, 100 μL of different concentrations of the sample, 380 μL of p-nitro-phenyl-α-D-glucopyranoside (p-NPG) (0.53 mM), and 20 μL of α-Glucosidase solution (1 units/mL) were mixed in 0.1 M potassium phosphate buffer (pH 6.8). After incubating at 37 °C for 20 min, 500 μL of sodium carbonate (0.1 M) was added in order to quench the reaction. The anti-α-glucosidase activity of the sample was determined by calculating the decrease in absorbance measured at 405 nm by the following equation,
Inhibition (%) = (A0 − A1)/A0 × 100, where A1 is the absorbance of the test sample and A0 is the absorbance of the control.

α-glucosidase, sequence (P53341 whole entry): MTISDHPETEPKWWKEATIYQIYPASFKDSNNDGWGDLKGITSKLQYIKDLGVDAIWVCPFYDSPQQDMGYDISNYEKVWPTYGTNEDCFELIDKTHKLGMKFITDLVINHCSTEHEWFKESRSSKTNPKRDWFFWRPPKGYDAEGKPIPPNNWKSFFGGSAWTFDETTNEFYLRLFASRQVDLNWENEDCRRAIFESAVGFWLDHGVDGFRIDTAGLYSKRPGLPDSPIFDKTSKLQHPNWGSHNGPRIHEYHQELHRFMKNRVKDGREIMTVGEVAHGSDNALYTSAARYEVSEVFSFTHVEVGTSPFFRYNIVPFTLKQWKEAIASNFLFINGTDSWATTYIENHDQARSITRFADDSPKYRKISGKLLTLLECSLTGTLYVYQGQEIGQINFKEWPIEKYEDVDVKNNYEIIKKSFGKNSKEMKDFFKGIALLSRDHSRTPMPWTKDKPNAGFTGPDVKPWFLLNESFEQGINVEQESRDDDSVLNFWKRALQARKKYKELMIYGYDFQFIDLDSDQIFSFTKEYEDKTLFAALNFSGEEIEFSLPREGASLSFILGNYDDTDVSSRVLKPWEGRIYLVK

Structure (SMILES)	IC50 DPPH ([1]; isolated components (Table 5)) [µg/mL]	IC50 DPPH ([1]; solvent extracts (Table 2)) [µg/mL]	IC50 ABTS ([2]; isolated components (Table 5)) [µg/mL]	IC50 ABTS ([2]; solvent extracts (Table 2)) [µg/mL]	IC50 Hydroxyl ([3]; isolated components (Table 5)) [µg/mL]	IC50 Hydroxyl ([3]; solvent extracts (Table 2)) [µg/mL]	IC50 Superoxide [4] [µg/mL]	IC50 (α-glucosidase) [µM]
O=C(O)/C=C/c1ccc(O)c(O)c1 [Caffeic acid, caffeic acid]	0.81 ± 0.09 (≈ 4.5 µM)		27.85 ± 18.95 (≈ 155 µM)		153.04 ± 85.84 (≈ 849 µM)		57.34 ± 7.44 (≈ 318 µM)	942
O=c1c(O)c(-c2ccc(O)cc2)oc2cc(O)cc(O)c12 [Kaempferol, kaempferol]	2.32 ± 0.17 (≈ 8.11 µM)		8.75 ± 0.90 (≈ 30.6 µM)		11.46 ± 5.60 (≈ 40 µM)		541.00 ± 18.47 (≈ 1890 µM)	
O=C(/C=C/c1ccc(O)c(O)c1)O[C@H](Cc1ccc(O)c(O)c1)C(=O)O [Rosmarinic acid, rosmarinic acid]	1.87 ± 0.09 (≈ 5.19 µM)		27.11 ± 14.00 (≈ 75.2 µM)		6.56 ± 4.77 (≈ 18.2 µM)		61.62 ± 6.43 (≈ 171 µM)	514
O=C(O)/C=C/c1ccc(O)cc1 [p-Coumaric acid, p-coumaric acid]	204.13 ± 9.78 (≈ 1240 µM)		27.01 ± 6.12 (≈ 165 µM)		60.70 ± 69.24 (≈ 370 µM)		256.00 ± 16.27 (≈ 1560 µM)	> 2440

The next lines start with results.

IC50 DPPH ([1]; isolated components (Table 5)) [µg/mL]	IC50 DPPH ([1]; solvent extracts (Table 2)) [µg/mL]	IC50 ABTS ([2]; isolated components (Table 5)) [µg/mL]	IC50 ABTS ([2]; solvent extracts (Table 2)) [µg/mL]	IC50 Hydroxyl ([3]; isolated components (Table 5)) [µg/mL]	IC50 Hydroxyl ([3]; solvent extracts (Table 2)) [µg/mL]	Structure (SMILES)	IC50 Superoxide [4] [µg/mL]	IC50 (α-glucosidase) [µM]
31.04 ± 2.12 (≈ 141 µM)	39.88 ± 1.30 (≈ 181 µM)	19.34 ± 2.18 (≈ 87.8 µM)	20.34 ± 1.69 (≈ 92.3 µM)	58.62 ± 2.75 (≈ 266 µM)	65.90 ± 1.23 (≈ 299 µM)	Cc1cc(C(C)(C)C)c(O)c(C(C)(C)C)c1 [BHT, Butylated hydroxytoluene, reference compound]		
1.07 ± 0.13 (≈ 3.54 µM)		11.46 ± 1.82 (≈ 37.9 µM)		9.75 ± 4.39 (≈ 32.3 µM)		O=c1c(O)c(-c2ccc(O)c(O)c2)oc2cc(O)cc(O)c12 [Quercetin, quercetin]	44.08 ± 3.07 (≈ 146 µM)	
3.81 ± 0.18 (≈ 19.6 µM)		24.47 ± 16.45 (≈ 126 µM)		68.26 ± 65.58 (≈ 352 µM)		COc1cc(/C=C/C(=O)O)ccc1O [trans-Ferulic acid, trans-ferulic acid]	541.00 ± 26.95 (≈ 2790 µM)	> 2060
